Measured values taken from ChEMBL document CHEMBL3217423, “Binding of 9-O-(-amino) alkyl ether analogues of the plant alkaloid berberine to poly(A): insights into self-structure induction” (Medchemcomm, 2011).
Activity calls are given as the source filed them. No cut-off for these calls is given here.

How the values were obtained:
[1] = Binding affinity to poly(A) tail mRNA (unknown origin) assessed as melting temperature of poly(A) self-structure by UV absorption/CD melting analysis
[2] = Binding affinity to poly(A) tail mRNA (unknown origin) assessed as induction of self-structure formation by circular dichroic spectroscopy
[3] = Binding affinity to poly(A) tail mRNA (unknown origin) assessed as induction of self-structure formation by circular dichroism analysis
[4] = Binding affinity to poly(A) tail mRNA (unknown origin) assessed as association constant by isothermal titration calorimetry relative to berberine
[5] = Binding affinity to poly(A) tail mRNA (unknown origin) assessed as apparent binding constant by absorption spectroscopy relative to berberine

| Tm [1] | Activity [2] | Activity [3] | Ratio [4] | Ratio [5] | Structure (SMILES) |
| --- | --- | --- | --- | --- | --- |
| 58 °C | Active | Active | – | – | COc1ccc2cc3[n+](cc2c1OC)CCc1cc2c(cc1-3)OCO2 [BERBERINE] |
| 59 °C | – | – | 3 | – | COc1ccc2cc3[n+](cc2c1OCCN)CCc1cc2c(cc1-3)OCO2 |
| 58 °C | Active | Active | – | – | COc1ccc2cc3[n+](cc2c1OCCCCN)CCc1cc2c(cc1-3)OCO2 |
| 59.5 °C | Active | Active | 10 | 20 | COc1ccc2cc3[n+](cc2c1OCCCCCCN)CCc1cc2c(cc1-3)OCO2 |
